Each compound was assayed against recombinant human MGAT2 (Homo sapiens (Human), UniProt Q3SYC2) (assay: Measurement of human MGAT2 inhibitory activity). Details: recombinant human MGAT2 membrane fraction (Sf-9); 2-Oleoylglycerol and Oleoyl-CoA substrates; 1 hour at room temperature; Diolein detected by RapidFire Q-TOF MS.
Chain of recombinant human MGAT2 (Q3SYC2 whole entry): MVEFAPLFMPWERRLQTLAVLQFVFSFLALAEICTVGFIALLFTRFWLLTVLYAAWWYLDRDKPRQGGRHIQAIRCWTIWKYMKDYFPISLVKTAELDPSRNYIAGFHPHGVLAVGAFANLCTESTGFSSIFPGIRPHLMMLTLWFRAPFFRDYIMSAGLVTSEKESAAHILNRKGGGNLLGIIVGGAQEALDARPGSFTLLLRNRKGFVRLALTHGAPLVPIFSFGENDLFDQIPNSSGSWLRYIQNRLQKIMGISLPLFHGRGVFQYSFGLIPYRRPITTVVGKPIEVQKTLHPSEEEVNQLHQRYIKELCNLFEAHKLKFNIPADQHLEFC
Assay type: biochemical
Excerpt: A full-length human MGAT2 gene to which a Flag-tag had been added at the N-terminal was inserted into pFastBac (from Invitrogen). A recombinant baculovirus was produced in accordance with the protocol for a Bac-to-Bac baculovirus expression system (produced by Invitrogen), and Sf-9 cells were infected therewith. The cells were collected and sonicated, and then the membrane fraction was collected through centrifugation.
Solutions of the compounds of the present invention in DMSO were each aliquoted into 0.2-μL portions in a 384-well polystyrene microplate produced by Corning Incorporated, and 5 μL of an enzyme solution prepared with an assay buffer (100 mmol/L phosphate buffer (pH 7.4) containing 2 mmol/L DTT) and 5 μL of a substrate solution (100 mmol/L phosphate buffer (pH 7.4), 30 μmol/L 2-Oleoylglycerol, 10 μmol/L Oleoyl-CoA) were added thereto, and the resultant was stirred and centrifuged, and incubated in a moist chamber at room temperature for 1 hour. […] Diolein as a reaction product (P) of 2-Oleoylglycerol as the substrate and an ammonium adduct ion of the IS were detected, and the peak intensity ratio, P/IS, was calculated from the peak heights to evaluate the inhibitory activity. […] The inhibitory activity was calculated from the formula below with TIBCO Spotfire (produced by TIBCO Software Inc.): Inhibitory activity (%)=[1−{Sample−Control(−)}/{Control(+)−Control(−))}]*100 where Sample indicates a peak intensity ratio: P/IS, when the compound of the present invention was added.
Compound COc1ccc(C2=C(CNC(C)=O)C(=O)N[C@@](c3ccc(OCCCC(F)(F)F)cc3)(C(F)(F)F)C2)nc1 (racemic) [Compound I-11] has an IC50 of 110 nM.
For CS(=O)(=O)CC(=O)NCC1=C(c2ccc(C(F)F)cn2)CC(c2cnn(CCCC(F)(F)F)c2)(C(F)(F)F)NC1=O (racemic) [Compound I-110], the IC50 was 91 nM.
Cc1ccc(C2=C(CNS(C)(=O)=O)C(=O)N[C@@](c3ccc(OCCCC(F)(F)F)cc3)(C(F)(F)F)C2)cc1 [Compound I-1] gave an IC50 of 21 nM.
In the case of Cc1ccc(C2=C(CNS(C)(=O)=O)C(=O)N[C@@](c3ccc(OCCCC(F)(F)F)cc3)(C(F)(F)F)C2)nc1 [Compound I-3], the IC50 is reported as 120 nM.
In the case of CC(=O)NCC1=C(c2ccc(C)cn2)C[C@](c2ccc(OCCCC(F)(F)F)cc2)(C(F)(F)F)NC1=O [Compound I-4], the IC50 is reported as 32 nM.
With Cc1ccc(C2=C(CNS(N)(=O)=O)C(=O)N[C@@](c3ccc(OCCCC(F)(F)F)cc3)(C(F)(F)F)C2)nc1 [Compound I-5] the IC50 was 230 nM.
For Cc1ccc(C2=C(CNC(N)=O)C(=O)N[C@@](c3ccc(OCCCC(F)(F)F)cc3)(C(F)(F)F)C2)nc1 [Compound I-6], the IC50 was 120 nM.
COC(=O)NCC1=C(c2ccc(C)cn2)C[C@](c2ccc(OCCCC(F)(F)F)cc2)(C(F)(F)F)NC1=O [Compound I-7] showed an IC50 of 150 nM.
For Cc1ccc(C2=C(CNC(=O)C3CC3)C(=O)N[C@@](c3ccc(OCCCC(F)(F)F)cc3)(C(F)(F)F)C2)nc1 [Compound I-8], the IC50 was 13 nM.
CC(=O)NCC1=C(c2ccc(CO)cn2)C[C@](c2ccc(OCCCC(F)(F)F)cc2)(C(F)(F)F)NC1=O [Compound I-9] gave an IC50 of 29 nM.
For Cc1ccc(C2=C(CNC(=O)CS(C)(=O)=O)C(=O)N[C@@](c3ccc(OCCCC(F)(F)F)cc3)(C(F)(F)F)C2)nc1 [Compound I-10], the IC50 was less than 4.6 nM.
COc1ccc(C2=C(CNC(=O)CS(C)(=O)=O)C(=O)N[C@@](c3ccc(OCCCC(F)(F)F)cc3)(C(F)(F)F)C2)nc1 [Compound I-12] gave an IC50 of 2.5 nM.
With COc1ccc(C2=C(CNC(=O)CC(F)(F)F)C(=O)N[C@@](c3ccc(OCCCC(F)(F)F)cc3)(C(F)(F)F)C2)nc1 [Compound I-13] the IC50 was 3.3 nM.
In the case of COc1ccc(C2=C(CNC(=O)C(C)C)C(=O)N[C@@](c3ccc(OCCCC(F)(F)F)cc3)(C(F)(F)F)C2)nc1 [Compound I-14], the IC50 is reported as 8 nM.
In the case of COc1ccc(C2=C(CNC(=O)C3CCC3)C(=O)N[C@@](c3ccc(OCCCC(F)(F)F)cc3)(C(F)(F)F)C2)nc1 [Compound I-15], the IC50 is reported as 10 nM.
With COc1ccc(C2=C(CNC(=O)CC(C)(C)C)C(=O)N[C@@](c3ccc(OCCCC(F)(F)F)cc3)(C(F)(F)F)C2)nc1 [Compound I-16] the IC50 was 52 nM.
With COc1ccc(C2=C(CNC(=O)c3ccno3)C(=O)N[C@@](c3ccc(OCCCC(F)(F)F)cc3)(C(F)(F)F)C2)nc1 [Compound I-17] the IC50 was 7.6 nM.
COc1ccc(C2=C(CNS(C)(=O)=O)C(=O)N[C@@](c3ccc(OCCCC(F)(F)F)cc3)(C(F)(F)F)C2)nc1 [Compound I-18] showed an IC50 of 330 nM.
Work on COc1ccc(C2=C(CNS(=O)(=O)CC(F)(F)F)C(=O)N[C@@](c3ccc(OCCCC(F)(F)F)cc3)(C(F)(F)F)C2)nc1 [Compound I-19] yielded an IC50 of 240 nM.
For COc1ccc(C2=C(CNS(=O)(=O)CC#N)C(=O)N[C@@](c3ccc(OCCCC(F)(F)F)cc3)(C(F)(F)F)C2)nc1 [Compound I-20], the IC50 was 35 nM.
With COc1ccc(C2=C(CNS(=O)(=O)C3CCOCC3)C(=O)N[C@@](c3ccc(OCCCC(F)(F)F)cc3)(C(F)(F)F)C2)nc1 [Compound I-22] the IC50 was 200 nM.
In the case of COc1ccc(C2=C(CNS(=O)(=O)c3ccccc3)C(=O)N[C@@](c3ccc(OCCCC(F)(F)F)cc3)(C(F)(F)F)C2)nc1 [Compound I-23], the IC50 is reported as 750 nM.
For COc1ccc(C2=C(CNC(=O)C3CC(=O)C3)C(=O)N[C@@](c3ccc(OCCCC(F)(F)F)cc3)(C(F)(F)F)C2)nc1 [Compound I-24], the IC50 was 40 nM.
Compound Cc1ccc(C2=C(CNC(=O)CC(F)(F)F)C(=O)N[C@@](c3ccc(OCCCC(F)(F)F)cc3)(C(F)(F)F)C2)nc1 [Compound I-26] has an IC50 of 2.3 nM.
Cc1ccc(C2=C(CNC(=O)c3ccno3)C(=O)N[C@@](c3ccc(OCCCC(F)(F)F)cc3)(C(F)(F)F)C2)nc1 [Compound I-27] was tested, and the IC50 was 2.2 nM.
With Cc1ccc(C2=C(CNS(=O)(=O)CC#N)C(=O)N[C@@](c3ccc(OCCCC(F)(F)F)cc3)(C(F)(F)F)C2)nc1 [Compound I-28] the IC50 was 100 nM.
Compound Cc1ccc(C2=C(CNC(=O)C3CS(=O)(=O)C3)C(=O)N[C@@](c3ccc(OCCCC(F)(F)F)cc3)(C(F)(F)F)C2)nc1 [Compound I-29] has an IC50 of 18 nM.
In the case of Cc1ccc(C2=C(CNC(=O)CC#N)C(=O)N[C@@](c3ccc(OCCCC(F)(F)F)cc3)(C(F)(F)F)C2)nc1 [Compound I-30], the IC50 is reported as 12 nM.
With Cc1ccc(C2=C(CNC(=O)CO)C(=O)N[C@@](c3ccc(OCCCC(F)(F)F)cc3)(C(F)(F)F)C2)nc1 [Compound I-31] the IC50 was 70 nM.
Compound COc1ccc(C2=C(CNC(=O)NC(C)C)C(=O)N[C@@](c3ccc(OCCCC(F)(F)F)cc3)(C(F)(F)F)C2)nc1 [Compound I-32] has an IC50 of 97 nM.
COc1ccc(C2=C(CNC(=O)OC(C)C)C(=O)N[C@@](c3ccc(OCCCC(F)(F)F)cc3)(C(F)(F)F)C2)nc1 [Compound I-33] showed an IC50 of 340 nM.
With CC(=O)NCC1=C(c2ccc(C(C)C)cn2)C[C@](c2ccc(OCCCC(F)(F)F)cc2)(C(F)(F)F)NC1=O [Compound I-35] the IC50 was 18 nM.
For COc1ccc(C2=C(CNC(=O)C3COC3)C(=O)N[C@@](c3ccc(OCCCC(F)(F)F)cc3)(C(F)(F)F)C2)nc1 [Compound I-36], the IC50 was 53 nM.
COc1ccc(C2=C(CNC(=O)CC#N)C(=O)N[C@@](c3ccc(OCCCC(F)(F)F)cc3)(C(F)(F)F)C2)nc1 [Compound I-37] gave an IC50 of 28 nM.
Compound COc1ccc(C2=C(CNC(=O)C(C)(C)C#N)C(=O)N[C@@](c3ccc(OCCCC(F)(F)F)cc3)(C(F)(F)F)C2)nc1 [Compound I-38] has an IC50 of 17 nM.
COc1ccc(C2=C(CNC(=O)C3(C#N)CC3)C(=O)N[C@@](c3ccc(OCCCC(F)(F)F)cc3)(C(F)(F)F)C2)nc1 [Compound I-39] showed an IC50 of 91 nM.
COc1ccc(C2=C(CNC(=O)CO)C(=O)N[C@@](c3ccc(OCCCC(F)(F)F)cc3)(C(F)(F)F)C2)nc1 [Compound I-40] gave an IC50 of 43 nM.
In the case of COc1ccc(C2=C(CNC(=O)C(C)(C)O)C(=O)N[C@@](c3ccc(OCCCC(F)(F)F)cc3)(C(F)(F)F)C2)nc1 [Compound I-41], the IC50 is reported as 75 nM.
For CC(=O)NCC1=C(c2ccc(C(C)(C)O)cn2)C[C@](c2ccc(OCCCC(F)(F)F)cc2)(C(F)(F)F)NC1=O [Compound I-42], the IC50 was 10 nM.
In the case of CC(C)c1ccc(C2=C(CNC(=O)CS(C)(=O)=O)C(=O)N[C@@](c3ccc(OCCCC(F)(F)F)cc3)(C(F)(F)F)C2)nc1 [Compound I-43], the IC50 is reported as less than 1 nM.
CC(C)c1ccc(C2=C(CNC(=O)C3CS(=O)(=O)C3)C(=O)N[C@@](c3ccc(OCCCC(F)(F)F)cc3)(C(F)(F)F)C2)nc1 [Compound I-44] was tested, and the IC50 was 9.2 nM.
With CC(C)c1ccc(C2=C(CNC(=O)C(C)(C)C#N)C(=O)N[C@@](c3ccc(OCCCC(F)(F)F)cc3)(C(F)(F)F)C2)nc1 [Compound I-45] the IC50 was 4.4 nM.
Compound COc1ccc(C2=C(CNC(=O)C3CS(=O)(=O)C3)C(=O)N[C@@](c3ccc(OCCCC(F)(F)F)cc3)(C(F)(F)F)C2)nc1 [Compound I-46] has an IC50 of 62 nM.
Compound CC(C)(O)c1ccc(C2=C(CNC(=O)CS(C)(=O)=O)C(=O)N[C@@](c3ccc(OCCCC(F)(F)F)cc3)(C(F)(F)F)C2)nc1 [Compound I-47] has an IC50 of 0.73 nM.
